The record followed here is patent publication US11634594B2, “Antimicrobial agent for coatings and finishes” (SWIMC LLC, priority 2016, dated 2023).

For this experiment, the system named is challenge pool of 7 bacteria: P. aeruginosa, E. aerogenes, E. coli, K. pneumonia, S. aureus, B. subtilis and S. enterica. Kind of experiment: ASTM D 2574 (modified) on pigment dispersions, split samples aged at room temperature / 3 weeks 60° C. / 6 weeks 60° C. It is filed as cell-based. As to the method: ASTM D 2574: Standard Test for Resistance of Emulsion Paints in the Container to Attack by Microorganisms.
The test is conducted in accordance with the ASTM standard, except for the following modifications noted for the preparation of the inoculum and test procedure.
Preparation of Inoculum: There are 7 bacteria used in forming the challenge pool, they include: P. aeruginosa (ATCC #10145), E. aerogenes (ATCC #13048), E. coli (ATCC #10536), K. pneumonia (ATCC #10031), S. aureus (ATCC #6538), B. subtilis (ATCC #6051) and S. enterica (ATCC #13312). Bacterial cultures are prepared 24 hours before the test is scheduled to start by selecting one colony from a plate with a […], inoculating loop, adding it to 10 mL of sterile tryptic soy broth tubes and placing it on the shaking incubator. A 1 mL of each of the seven organisms is combined into a pool in a conical tube. A 1 mL of the created pool is then added to a 9 mL of sterile tryptic soy broth in a conical tube to get an inoculum concentration of ˜10^8 CFU/mL.
Test Procedure: A 1:100 dilution of the inoculum is added into each sample (ex. […], into 40 mL of sample) which provides a ˜10^6 CFU/mL challenge. The samples are then placed into 35° C. incubator for 24 hours to grow new organisms before each inoculation. The samples are inoculated on Days: 0, 2, 7 and 14. The samples are put back into incubator after each inoculation. […]

Consider bismuth aluminate, for which the “effectiveness compared with isothiazolone antimicrobial agent” value (Table 4) is listed as “at least as effective as the isothiazolone antimicrobial agent”. Besides, the preventing microbial growth entry (initial results) is reported as “effective in preventing microbial growth”.
